Measured values from patent publication US20070144540A1, “Drug delivery through application in nails” (TLT Medical Ltd., priority 2004, published 2007).

Experiment: in-vitro nail permeation assay in Franz-type diffusion cells
Assay type: in vitro ADME, human
Settings: formulations with 5% and 10% (w/w) terbinafine in the vehicle of Table 3; nails with 400 orifices/cm^2, depth 0.5 mm (50% to 70% of nail plate thickness); single dose of 100 μL; 30° C.; up to 72 hours
Procedure: Franz-cells comprise two chambers separated by the nail plate. The radiolabelled [^14C]-terbinafine containing transungual formulations were applied in the donor upper chamber and the receptor chamber is filled with a buffer to simulate the human physiological conditions. To account for the fact the nails are hard and curved, wetted nails are clamped between two flexible flat silicone polymer disks. The temperature of the cells was kept a 30° C. using a circulating water bath. Magnetic stirrer bars were used to ensure receptor uniformity throughout an experiment.
The nail permeation assays consisted of exposing the dorsal side of the nail plates to the investigated formulations while monitoring the appearance the amount of radiolabelled [^14C]-terbinafine on the ventral side by […] in the receptor fluid chamber of the Franz cells. In all cases a single dose of 100 μL was applied in the nail dorsal side. 100 μL of buffer were taken for each time point for LSC measurement which was replaced by buffer in order to keep the total buffer volume constant. The sampling time points were 0, 1, 3, 5, 7, 24, 32, 48, 52, 55 and 72 hours.
Human cadaveric thumb toenails used in the permeation assays were harvested from diseased adults (age >50 years old) in order to match thickness and consistence of the nails of the patient age group having a higher incidence to onychomycosis. […]

terbinafine permeation fluxes in laser pre-treated nails versus untreated nails: three to four times higher
Compound: CN(C/C=C/C#CC(C)(C)C)Cc1cccc2ccccc12 [terbinafine]
